Laboratory results published in patent US20210161149A1, “METHOD OF CONTROLLING SOIL-BORNE DISEASES OF PLANTS” (NATIONAL AGRICULTURE AND FOOD RESEARCH ORGANIZATION, priority 2018, published 2021).

Key:
[1] = system: Pythium ultimum strain MAFF425494; experiment: Control of Pythium soil-borne disease in cucumber by a Pseudomonas bacterium combined with an amino acid; format: in vivo; conditions: for effect on disease control ability of the Pseudomonas bacterium, averaged cucumber weight (FIG. 2): 10 mM amino acid combined with Pseudomonas protegens strain CHA0, n=12 per group
Procedure: The disease control abilities of a Pseudomonas bacterium and glutamic acid against an infectious disease caused by a Pythium (Pythium ultimum strain MAFF425494) as a soil pathogen were investigated using cucumber as a test plant.
(§1) Cucumber seeds were placed on a filter paper moistened with sterile water and left in darkness at 26° C. for 24 hours. Pseudomonas protegens strain CHA0 was used as a Pseudomonas bacterium and incubated with shaking in NYB medium (nutrient broth 25 g, yeast extract 5 g, H2O 1000 mL) under the conditions of 30° C. and 180 rpm for 24 hours. The broth culture of the Pseudomonas bacterium was centrifuged to remove supernatants, and the precipitate was suspended in sterile water to OD600=0.1.
Vermiculite was moistened by adding water. To the vermiculite, coarse cereal crops (millet) previously infected with a Pythium were added as they were, and mixing was done well. 7 g of the coarse cereal crops infected with a Pythium was added to 1 L of the vermiculite. Some portion of the vermiculite was left without adding the coarse cereal crops infected with a Pythium.
(§2) 50 mL of each prepared vermiculite was equally divided into sections (each 5 cm square and 5 cm deep) of a seedling tray with drainage holes at the bottom for water to drain out. Two grains of cucumber seeds observed to have germinated were seeded on each divided vermiculite.
The Pseudomonas bacterium and glutamic acid were applied to cucumber seeds and soils in their vicinity. To be specific, for each section of the seedling tray, 4 mL of the adjusted solution of the Pseudomonas bacterium was applied to cucumber seeds, and 15 mL of the vermiculite left without being infected with a Pythium was placed over the cucumber seeds. The seedling tray was soaked in water or an aqueous solution of 10 mM glutamic acid (L-glutamic acid) (10 mL per seedling tray section) contained in a vat. The applications of the Pseudomonas bacterium and glutamic acid were carried out within 2 hours after the seeding of cucumber seeds. The interval between the timings of applications of the Pseudomonas bacterium and glutamic acid was ensured to be not exceeding 1 hour.
The seedling tray was kept in a plant incubator set at 25° C. The light and dark periods were set to 16 and 8 hours, respectively. The cultivation period in the incubator was set to 2 weeks. Replacement of water or an aqueous solution of 10 mM glutamic acid in a vat was done every other day.
By using the same procedure as in Example 1, the effectiveness of combined use of the Pseudomonas bacterium with each of glutamic acid and histidine was investigated.
For application of histidine, an aqueous solution of 10 mM histidine (L-histidine) was prepared and used instead of the aqueous solution of glutamic acid used in Example 1. The number of cucumbers cultivated was n=12 for each group. After 2 weeks of cultivation, the weights of cucumbers were measured and averaged. Upon measurement of the weights of cucumbers, it was ensured that the vermiculite remaining on the roots of cucumbers was washed away carefully.
The effects of combined use of a Pseudomonas bacterium with other amino acids than histidine were investigated. In this example, not only glutamic acid (Glu), but also the following other amino acids: glutamine (Gln), glycine (Gly), leucine (Leu), phenylalanine (Phe), arginine (Arg), lysine (Lys), valine (Val), isoleucine (Ile) and tryptophane (Trp), were evaluated by using the same procedure as in Example 1. For each of these amino acids, an aqueous solution of 10 mM amino acid was prepared and used. In this example, Pseudomonas protegens strain Cab57 was used as a Pseudomonas bacterium, and all amino acids used were of the L-form.
The number of cucumbers cultivated in this example was n=12 to 18 for each group. As in Example 2, after 2 weeks of cultivation, the weights of cucumbers were measured and averaged. […]

[2] = system: Rhizoctonia solani strain MAFF726551; experiment: Control of Rhizoctonia soil-borne disease in cucumber by a Pseudomonas bacterium combined with glutamic acid; format: in vivo; conditions: 10 mM glutamic acid combined with Pseudomonas protegens strain Cab57, 5 days cultivation, n=8 to 12
Procedure: as §1, §2
The Pseudomonas bacterium and glutamic acid were applied to cucumber seeds and soils in their vicinity. […]
In this example, by using the same procedure as in Example 1, 1 g of coarse cereal crops infected with the Rhizoctonia was added to 1 L of vermiculite, instead of 7 g of coarse cereal crops infected with a Pythium. […] As in Example 3, for each of the averaged values of the cucumber weights after cultivation calculated for the different groups, a relative value was determined with respect to the averaged value for the group treated with the Pseudomonas bacterium alone, which was taken as 1.

Compound | effect on disease control ability of the Pseudomonas bacterium, averaged cucumber weight (FIG. 2) ([1]; cucumber, 2 weeks) | effect on soil-borne disease control ability of the Pseudomonas bacterium, cucumber weight relative to bacterium alone = 1 (FIG. 5) [2] | effect of combined use on the soil-borne disease control ability of the Pseudomonas bacterium (photograph, FIG. 1) ([1]; cucumber germinated seeds in vermiculite, 10 mM L-glutamic acid combined with Pseudomonas protegens strain CHA0, 2 weeks cultivation) | effect on disease control ability of the Pseudomonas bacterium, cucumber weight relative to bacterium alone = 1 (FIG. 3) ([1]; cucumber, 10 mM L-amino acid combined with Pseudomonas protegens strain Cab57, 2 weeks, n=12 to 18) | soil-borne disease control ability of glutamic acid itself (FIG. 1) ([1]; cucumber, 10 mM L-glutamic acid alone, no Pseudomonas bacterium, 2 weeks cultivation) | effect on disease control ability of the Pseudomonas bacterium, cucumber weight relative to bacterium alone = 1 (FIG. 4) ([1]; cucumber, 10 mM glutamic acid combined with Pseudomonas sp. strain Os17, 2 weeks, n=17)
N[C@@H](Cc1c[nH]cn1)C(=O)O [histidine, L-histidine, reference compound] | did not have a capability of enhancing the disease control ability of the Pseudomonas bacterium |  |  |  |  | 
N[C@@H](CCC(=O)O)C(=O)O [glutamic acid, L-glutamic acid] | enhanced the disease control ability of the bacterium | exhibited similar enhancement of soil-borne disease control ability | enhanced the soil-borne disease control ability of the Pseudomonas bacterium | exhibited a similar effect even on a different strain of Pseudomonas bacterium | seemed not to have a high soil-borne disease control ability | exhibited a similar effect
